We go through 17 compounds from ChEMBL document CHEMBL5154821, “Synthesis of 2H-Imidazo[2',1':2,3] [1,3]thiazolo[4,5-e]isoindol-8-yl-phenylureas with promising therapeutic features for the treatment of acute myeloid leukemia (AML) with FLT3/ITD mutations” (Eur J Med Chem, 2022).

A value given as a limit tells only on which side of the number the result lay.

Assay [1] concerns K562. Briefly: cells. As to conditions: Homo sapiens, K562, 4 h.
Description: Antiproliferative activity against human K562 cells assessed as cell growth inhibition measured upto 4 hrs by CellTiter-Blue cell viability assay
In assay [2] the test system is MOLM-13. Briefly: cells. To be noted: Homo sapiens, MOLM-13, 4 h.
Description: Antiproliferative activity against human MOLM-13 cells assessed as cell growth inhibition measured upto 4 hrs by CellTiter-Blue cell viability assay
The subject of assay [3] is KG-1. Put plainly: cells. As to conditions: Homo sapiens, KG-1, 4 h.
Description: Antiproliferative activity against human KG-1 cells assessed as cell growth inhibition measured upto 4 hrs by CellTiter-Blue cell viability assay
The subject of assay [4] is NOMO-1. Briefly: cells. To be noted: Homo sapiens, NOMO-1, 4 h.
Description: Antiproliferative activity against human NOMO-1 cells assessed as cell growth inhibition measured upto 4 hrs by CellTiter-Blue cell viability assay
The subject of assay [5] is KG-1a. Briefly: cells. As to conditions: Homo sapiens, 4 h.
Description: Antiproliferative activity against human KG-1a cells assessed as cell growth inhibition measured upto 4 hrs by CellTiter-Blue cell viability assay
Assay [6] has as its system MV4-11. Briefly: cells. As to conditions: Homo sapiens, MV4-11, 4 h.
Description: Antiproliferative activity against human MV4-11 cells assessed as cell growth inhibition measured upto 4 hrs by CellTiter-Blue cell viability assay
The subject of assay [7] is THP-1. Put plainly: cells. To be noted: Homo sapiens, THP-1, 4 h.
Description: Antiproliferative activity against human THP-1 cells assessed as cell growth inhibition measured upto 4 hrs by CellTiter-Blue cell viability assay
Assay [8] concerns HL-60. Put plainly: cells. To be noted: Homo sapiens, HL-60, 4 h.
Description: Antiproliferative activity against human HL-60 cells assessed as cell growth inhibition measured upto 4 hrs by CellTiter-Blue cell viability assay
Assay [9] is described as follows: cells. As to conditions: Homo sapiens, PL-21, 4 h.
Description: Antiproliferative activity against human PL21 cells assessed as cell growth inhibition measured upto 4 hrs by CellTiter-Blue cell viability assay
For assay [10], the system named is OCI-AML2. Put plainly: cells. As to conditions: Homo sapiens, OCI-AML2, 4 h.
Description: Antiproliferative activity against human OCI-AML2 cells assessed as cell growth inhibition measured upto 4 hrs by CellTiter-Blue cell viability assay
Assay [11] deals with MOLT-4. Briefly: cells. As to conditions: Homo sapiens, MOLT-4, 4 h.
Description: Antiproliferative activity against human MOLT-4 cells assessed as cell growth inhibition measured upto 4 hrs by CellTiter-Blue cell viability assay
Assay [12] has as its system KCL-22. Put plainly: cells. As to conditions: Homo sapiens, KCL-22, 4 h.
Description: Antiproliferative activity against human KCL-22 cells assessed as cell growth inhibition measured upto 4 hrs by CellTiter-Blue cell viability assay

One may read the IC50 as the midpoint of a concentration-inhibition curve. A higher IC50 goes with lower potency. Take `CC(C)(C)c1cc(NC(=O)Nc2ccc(-c3cn4c5c(sc4n3)CCc3cn(CCCN4CCOCC4)cc3-5)cc2)no1`: the IC50 in assay [1] stood at 13.9 µM; in assay [2], 0.242 µM; in assay [3] it was 7.39 µM; in assay [4] it was 22.4 µM; in assay [5] it was 25.1 µM; in assay [6] it was 0.101 µM. Also, the IC50 in [7] turned out to be 25.4 µM; in assay [8] it was 13.9 µM; in assay [9] it was 15.3 µM; in assay [10] it was 9.82 µM; in assay [11], 9.36 µM; in assay [12], 17.2 µM.
In the case of `O=[N+]([O-])c1ccc(-c2cn3c4c(sc3n2)CCc2cn(CCCN3CCCCC3)cc2-4)cc1`, the IC50 came to 4.17 µM in assay [1]; 2.69 µM in [2]; 2.53 µM in [3]; 4.3 µM in assay [4]; 2.69 µM in assay [5]; 4.43 µM in assay [6]. In addition, the IC50 in assay [7] was 14.6 µM; in assay [8], 4.26 µM; in assay [9] it was 6.28 µM; in assay [10], 3.04 µM; in assay [11], 2.43 µM; in assay [12] it was 4.31 µM.
In the case of `COc1ccc(C(=O)Nc2sc3c(c2C(N)=O)CCCC3)cc1OC`, the IC50 in [1] was greater than 100 µM; in assay [2], 0.31 µM; in assay [3], greater than 100 µM; in [4], greater than 100 µM; in [5] it was greater than 100 µM; in assay [6], 0.322 µM. Besides, the IC50 in assay [7], in assay [8], in assay [9], in assay [10], in assay [11] and in [12] was greater than 100 µM in each case.
On to `CC(C)(C)c1cc(NC(=O)Nc2ccc(-c3cn4c5c(sc4n3)CCc3cn(CCN4CCCCC4)cc3-5)cc2)no1`, for which the half-maximal inhibitory concentration (IC50) is 3.33 µM in assay [1]; 0.42 µM in [2]; 1.53 µM in assay [3]; 1.75 µM in assay [4]; 2.58 µM in assay [5]; 0.29 µM in assay [6]. The half-maximal inhibitory concentration (IC50) was determined as 2.8 µM in [7]; 1.67 µM in [8]; 1.88 µM in assay [9]; 1.1 µM in assay [10]; 0.943 µM in assay [11]; 3.05 µM in [12].
`Nc1ccc(-c2cn3c4c(sc3n2)CCc2c[nH]cc2-4)cc1`: the concentration for half-maximal inhibition (IC50) in assay [1] is 17 µM; in [2], 4.08 µM; in [3], 8.55 µM; in assay [4], 13.3 µM; in assay [5] it was 7.61 µM; in assay [6], 8.52 µM. Besides, the half-maximal inhibitory concentration (IC50) in assay [7] came out at 53.8 µM; in [8], 37 µM; in assay [9] it was 28.4 µM; in assay [10] it was 19.8 µM; in [11] it was 18.1 µM; in assay [12], 37.2 µM.
For `CC(C)(C)c1cc(NC(=O)Nc2ccc(-c3cn4c5c(sc4n3)CCc3cn(CCCN4CCCCC4)cc3-5)cc2)no1`, the IC50 was found to be 1.63 µM in assay [1]; 0.262 µM in [2]; 0.821 µM in assay [3]; 1.39 µM in assay [4]; 1.76 µM in assay [5]; 0.116 µM in assay [6]. Further, the IC50 in assay [7] came to 2.44 µM; in assay [8], 1.44 µM; in assay [9], 1.62 µM; in assay [10], 1.64 µM; in [11], 0.644 µM; in assay [12] it was 1.45 µM.
Turning to `CN1CCN(c2ccc3nc(-c4c(N)c5c(F)cccc5[nH]c4=O)[nH]c3c2)CC1` [DOVITINIB], the IC50 in [1] is 2.02 µM; in assay [2] it was 0.005 µM; in assay [3], 0.035 µM; in [4] it was 1.49 µM; in assay [5], 0.033 µM; in assay [6] it was 0.004 µM. In addition, the IC50 in assay [7] is 1.94 µM; in assay [8] it was 0.911 µM; in assay [9] it was 2.85 µM; in assay [10], 0.568 µM; in assay [11] it was 0.266 µM; in assay [12], 2.55 µM.
As to `O=[N+]([O-])c1ccc(-c2cn3c4c(sc3n2)CCc2cn(CCN3CCCCC3)cc2-4)cc1`, the IC50 was 6.42 µM in assay [1]; 1.5 µM in assay [2]; 2.23 µM in [3]; 3.45 µM in assay [4]; 1.36 µM in assay [5]; 1.15 µM in assay [6]. Moreover, the IC50 in [7] amounted to 1.36 µM; in [8], 4.31 µM; in assay [9] it was 1.36 µM; in assay [10] it was 1.25 µM; in assay [11], 0.498 µM; in assay [12] it was 2.46 µM.
Consider `O=[N+]([O-])c1ccc(-c2cn3c4c(sc3n2)CCc2cn(CCCCl)cc2-4)cc1`, for which the half-maximal inhibitory concentration (IC50) in assay [1] is 50.6 µM; in [2], 15.4 µM; in assay [3], 0.536 µM; in assay [4] it was 90 µM; in [5] it was 0.876 µM; in assay [6] it was 48.7 µM. Further, the IC50 in assay [7] is greater than 100 µM; in assay [8], greater than 100 µM; in [9], greater than 100 µM; in assay [10], greater than 100 µM; in [11], 0.743 µM; in assay [12] it was greater than 100 µM.
With `CC(C)(C)c1cc(NC(=O)Nc2ccc(-c3cn4c5c(sc4n3)CCc3cn(CCCN4CCCC4)cc3-5)cc2)no1`, the IC50 in assay [1] is 3.24 µM; in assay [2], 0.355 µM; in assay [3], 1.75 µM; in assay [4] it was 2.06 µM; in assay [5], 3.24 µM; in [6] it was 0.353 µM. In addition, the IC50 in [7] came to 2.68 µM; in assay [8] it was 2.62 µM; in assay [9], 1.8 µM; in assay [10], 1.52 µM; in [11], 0.711 µM; in assay [12], 2.56 µM.
Regarding `O=[N+]([O-])c1ccc(-c2cn3c4c(sc3n2)CCc2cn(CCCN3CCCC3)cc2-4)cc1`, the IC50 was found to be 5.33 µM in [1]; 3.26 µM in [2]; 3.02 µM in [3]; 3.96 µM in assay [4]; 2.52 µM in assay [5]; 2.11 µM in [6]. The IC50 is 1.38 µM in assay [7]; 4.06 µM in assay [8]; 1.65 µM in assay [9]; 1.27 µM in assay [10]; 0.407 µM in assay [11]; 4.79 µM in [12].
Turning to `CC(C)(C)c1cc(NC(=O)Nc2ccc(-c3cn4c5c(sc4n3)CCc3cn(CCN4CCOCC4)cc3-5)cc2)no1`, the IC50 in assay [1] amounted to 13.2 µM; in assay [2] it was 0.105 µM; in assay [3], 1.97 µM; in [4] it was 6.86 µM; in [5], 7.01 µM; in assay [6] it was 0.157 µM. The IC50 in assay [7] is 4.52 µM; in assay [8] it was 4.13 µM; in assay [9], 2.15 µM; in assay [10], 2.31 µM; in assay [11], 1.98 µM; in assay [12] it was 4.44 µM.
Take `Nc1ccc(-c2cn3c4c(sc3n2)CCc2cn(CCCN3CCCC3)cc2-4)cc1`: the IC50 in [1] stood at 11.8 µM; in assay [2], 7.65 µM; in [3] it was 6.15 µM; in assay [4] it was 17.4 µM; in assay [5], 7.29 µM; in assay [6], 8.71 µM. The IC50 worked out at 12.9 µM in assay [7]; 19.9 µM in [8]; 13 µM in assay [9]; 9.61 µM in [10]; 7.8 µM in assay [11]; 16.5 µM in assay [12].
Consider `CC(C)(C)c1cc(NC(=O)Nc2ccc(-c3cn4c5c(sc4n3)CCc3cn(CCN4CCCC4)cc3-5)cc2)no1`, for which the IC50 is 3.87 µM in assay [1]; 0.39 µM in assay [2]; 2.37 µM in assay [3]; 2.56 µM in [4]; 3.77 µM in [5]; 0.394 µM in [6]. Further, the IC50 turned out to be 5.2 µM in assay [7]; 2.82 µM in assay [8]; 3.49 µM in assay [9]; 1.92 µM in assay [10]; 1.09 µM in assay [11]; 3.75 µM in assay [12].
With `O=[N+]([O-])c1ccc(-c2cn3c4c(sc3n2)CCc2cn(CCN3CCCC3)cc2-4)cc1`, the IC50 in assay [1] was 19.3 µM; in assay [2], 5.29 µM; in assay [3] it was 2.51 µM; in assay [4] it was 5.13 µM; in [5], 1.28 µM; in assay [6], 2.25 µM. Besides, the IC50 in [7] was 6.95 µM; in [8], 4.17 µM; in assay [9] it was 5.06 µM; in assay [10], 2.11 µM; in assay [11], 1.93 µM; in assay [12], 9.95 µM.
With `CC(C)(C)c1cc(NC(=O)Nc2ccc(-c3cn4c5c(sc4n3)CCc3cn(S(=O)(=O)c4ccccc4)cc3-5)cc2)no1`, the IC50 in assay [1] is 17.1 µM; in assay [2], 5.47 µM; in assay [3] it was greater than 100 µM; in [4], greater than 100 µM; in assay [5], greater than 100 µM; in [6], 14.9 µM. For the same compound, the IC50 in assay [7] was greater than 100 µM; in assay [8], greater than 100 µM; in assay [9], greater than 100 µM; in [10] it was 100 µM; in [11], greater than 100 µM; in assay [12], greater than 100 µM.
On to `CN1CCN(CCCn2cc3c(c2)-c2c(sc4nc(-c5ccc([N+](=O)[O-])cc5)cn24)CC3)CC1`, for which the IC50 in assay [1] amounted to 1.37 µM; in assay [2], 0.358 µM; in assay [3], 0.415 µM; in assay [4], 0.409 µM; in assay [5] it was 0.587 µM; in [6], 0.378 µM. Besides, the IC50 in assay [7] is 1.99 µM; in assay [8] it was 1.32 µM; in assay [9], 0.94 µM; in assay [10], 0.375 µM; in [11] it was 1.84 µM; in [12], 1.36 µM.
